Like-named read-outs stand apart in the source and are kept apart here.
Experiments:
Assay type in all cases: cell-based
HepG2 cells [1] = test: Cellular ATP content of HepG2 cells in glucose or galactose medium (ATP bioluminescent assay); details: 2 h; for decrease in ATP content in galactose medium compared with glucose medium: up to 300 µM; for EC50: Homo sapiens, concentration reducing cellular ATP content by 50%; for EC50ATPglu/EC50ATPgal: ratio ≥ 2 identifies a mitochondrial liability
Description: Metabolic switching of cells was performed based on work previously described by ([[…] et al., 2015]). Briefly, 24 h prior to metabolic switch, HepG2 cells were collected by trypsinization and seeded on a collagen-coated flat-bottomed 96-well plate (20 000 cells/50 μl/well) and incubated (37°C, 5% CO2) overnight. […] Flutamide, 2-hydroxyflutamide and bicalutamide stock solutions were prepared in DMSO and diluted further in the appropriate medium. Compounds (50 μl) were then added to each well and cells were incubated for 2 h (37 °C, 5% CO2). All assays used ≤ 0.5% DMSO as a vehicle control. […] LDH content of the cells and supernatant was assessed using a cytotoxicity detection kit according to the manufacturer's instructions. ATP content was assessed using an ATP bioluminescent assay according to the manufacturer's instructions. Briefly, 10 μl of cell lysate or ATP standard curve solutions were added to a white-walled 96-well plate before addition of 40 μl ATP assay mix. Protein content of all wells was then assessed using a BCA assay applied to 10 μl of cell lysate and standards. LDH (490 nm), BCA (570 nm), and ATP assay luminescence were then measured using a plate reader (Varioskan, Thermo Scientific). ATP content readings were normalized to protein content. Experiments were conducted in a minimum of triplicate to ensure the reliability of single values. EC50 data were determined by nonlinear regression analysis using GraphPad Prism 5.0. Normality was assessed using a Shapiro-Wilk statistical test. Statistical significance was determined by an unpaired t-test for parametric data and a Mann-Whitney U test for non-parametric data using StatsDirect 2.7.9. P < .05 was taken as showing a significant difference.

[2] = tested on: mitochondrial respiratory complex I; test: In situ respiratory complex assay in permeabilized cells, complex I; details: uncoupled, permeabilized HepG2 cells, 10–250 µM
[3] = tested on: mitochondrial respiratory complex I; test: Complex I-linked respiration assay in permeabilized cells; details: for concentration inducing a significant reduction in complex I activity: permeabilized HepG2 cells, complex I-stimulated maximal respiration vs vehicle control, 10–250 µM
Description: Culture medium was replaced with MAS buffer containing constituents to stimulate oxygen consumption via complex I (as previously without FCCP), complex II (ADP; 4.6 mM, succinate; 20 mM, rotenone; 1 µM, BSA; 0.2% w/v, PMP; 1 nM), or complex III (ADP; 4.6 mM, duroquinol; 500 μM, rotenone; 1 μM, malonic acid; 40 μM, BSA; 0.2% w/v, PMP; 1 nM) dependent on the respiratory complex of interest. […] Changes in complex II activity were also assessed at lower compound concentrations; 2–30 μM (Supplementary Figure S1). Complex I, II, and III activity were defined by the change in complex I, II, or III-stimulated maximal respiration respectively compared with vehicle control.
Following completion of OCR assays, medium was removed from all wells and 20 µl of somatic cell ATP releasing agent was added to each well before shaking for 1 min and transfer of 10 µl of lysate to a 96-well plate and performance of a BCA assay according to the manufacturer’s instructions. Protein content per well was used to normalize OCR.

Complex V (ATP synthase) = test: Complex V assay in permeabilized cells; details: permeabilized HepG2 cells, OCR change coupled vs uncoupled cells, 10–250 µM
Description: The assay consisted of a basal OCR measurement of 2 cycles of mix (30 s), wait (30 s), and measure (2 min) followed by MAS or FCCP injection (0.5 µM) and 2 measurement cycles. MAS-injected cells remain coupled whereas FCCP-injected cells become uncoupled meaning Complex V (ATP synthase) inhibition should not result in a change in OCR. […] FIG. 4 Representative complex V assay trace. Complex V assays consisted of cells in a solution containing substrates for complex IV before a series of compound injections into the cell culture microplate. FCCP (OXPHOS uncoupler) (Trace A) or MAS buffer (Traces B and C) was first injected, followed by 2 cycles of measurements. Flutamide, 2-hydroxyflutamide, oligomycin (positive control), or vehicle control was then injected into both the uncoupled (FCCP-treated) and coupled (MAS-treated) cells. […] Each measurement cycle was a total of 3 min. Following completion of OCR assays, medium was removed from all wells and 20 µl of somatic cell ATP releasing agent was added to each well before shaking for 1 min and transfer of 10 µl of lysate to a 96-well plate and performance of a BCA assay according to the manufacturer’s instructions. Protein content per well was used to normalize OCR.

HepG2 cells [4] = test: Assessment of NAD+/NADH ratio; details: 2 h, glucose medium, 30–500 µM
Description: HepG2 cells were collected by trypsinization and seeded on a 24-well plate (450 000 cells/500 µl/well) and incubated overnight in glucose medium (37 °C, 5% CO2). […] NAD^+ and NADH concentrations were measured in lysates using a NAD^+/NADH ratio assay kit according to the manufacturer’s instructions.

[5] = galactose medium, read-out: EC50ATP (μM) Galactose
[6] = glucose medium, read-out: EC50ATP (μM) Glucose

Compound | decrease in ATP content in galactose medium compared with glucose medium (HepG2 cells [1]) | EC50 (HepG2 cells [1]; [5]) [µM] | EC50 (HepG2 cells [1]; [6]) [µM] | complex I activity (response to rotenone) [2] | concentration inducing a significant reduction in complex I activity [3] [µM] | concentration inducing a significant reduction in complex V activity (Complex V (ATP synthase)) [µM] | NAD+/NADH ratio (HepG2 cells [4]) | concentration significantly decreasing NAD+/NADH ratio (HepG2 cells [4]) [µM] | EC50ATPglu/EC50ATPgal (HepG2 cells [1]) | EC50ATPglu/EC50ATPgal (HepG2 cells [1]; listed as flutamide) | OCR upon compound injection, complex I assay ([3]; permeabilised HepG2 cells, up to 250 µM) | complex V activity (Complex V (ATP synthase))
CC(C)(O)C(=O)Nc1ccc([N+](=O)[O-])c(C(F)(F)F)c1 [2-hydroxyflutamide] | significantly more in the galactose medium | 48.5 | 267 | significant reduction in complex I activity | ≥ 30 | ≥ 125 | significantly decreased | ≥ 100 |  |  |  | 
CC(C)C(=O)Nc1ccc([N+](=O)[O-])c(C(F)(F)F)c1 [Flutamide] | significantly more in the galactose medium | 43.9 | 255 | significant reduction in complex I activity | ≥ 30 |  | significantly decreased | ≥ 100 | 5.82 (0.03) | ≥ 2 | immediate concentration-dependent reduction in OCR | this was not the case for flutamide
